Assays:
[1] = molecular target: PAS domain-containing serine/threonine-protein kinase (Homo sapiens) (UniProt Q96RG2); assay: Selectivity interaction (KinaseProfiler screening (Millipore)) EUB0000601a PASK; conditions: at 3 µM
[2] = molecular target: Serine/threonine-protein kinase 35 (Homo sapiens) (UniProt Q8TDR2); assay: Selectivity interaction (KinomeScan (DiscoverX)) EUB0001079a STK35; conditions: at 1 µM
[3] = molecular target: T1, Dual specificity mitogen-activated protein kinase kinase 4 (Homo sapiens) (UniProt P45985); assay: Selectivity interaction (Kinase panel (KiNativ target engagement assay in Jurkat cells)) EUB0001635a MAP2K4; format: cell-based; conditions: at 1 µM
T1 sequence (whole entry): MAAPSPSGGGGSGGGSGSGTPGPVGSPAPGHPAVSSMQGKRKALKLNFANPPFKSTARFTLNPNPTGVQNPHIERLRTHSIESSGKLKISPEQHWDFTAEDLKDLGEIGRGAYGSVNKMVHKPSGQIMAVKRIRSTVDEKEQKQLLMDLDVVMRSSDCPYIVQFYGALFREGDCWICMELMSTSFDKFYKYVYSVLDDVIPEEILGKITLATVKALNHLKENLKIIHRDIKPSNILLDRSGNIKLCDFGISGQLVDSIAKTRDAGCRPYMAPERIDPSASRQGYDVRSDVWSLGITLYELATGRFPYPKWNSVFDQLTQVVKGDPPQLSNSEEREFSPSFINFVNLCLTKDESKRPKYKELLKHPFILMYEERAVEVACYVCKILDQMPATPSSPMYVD

[4] = molecular target: T2, Protein arginine N-methyltransferase 9 (Homo sapiens) (UniProt Q6P2P2); assay: Selectivity interaction (Methyltransferase screen (Scintillation proximity assays)) EUB0000255b PRMT9
T2 sequence (whole entry): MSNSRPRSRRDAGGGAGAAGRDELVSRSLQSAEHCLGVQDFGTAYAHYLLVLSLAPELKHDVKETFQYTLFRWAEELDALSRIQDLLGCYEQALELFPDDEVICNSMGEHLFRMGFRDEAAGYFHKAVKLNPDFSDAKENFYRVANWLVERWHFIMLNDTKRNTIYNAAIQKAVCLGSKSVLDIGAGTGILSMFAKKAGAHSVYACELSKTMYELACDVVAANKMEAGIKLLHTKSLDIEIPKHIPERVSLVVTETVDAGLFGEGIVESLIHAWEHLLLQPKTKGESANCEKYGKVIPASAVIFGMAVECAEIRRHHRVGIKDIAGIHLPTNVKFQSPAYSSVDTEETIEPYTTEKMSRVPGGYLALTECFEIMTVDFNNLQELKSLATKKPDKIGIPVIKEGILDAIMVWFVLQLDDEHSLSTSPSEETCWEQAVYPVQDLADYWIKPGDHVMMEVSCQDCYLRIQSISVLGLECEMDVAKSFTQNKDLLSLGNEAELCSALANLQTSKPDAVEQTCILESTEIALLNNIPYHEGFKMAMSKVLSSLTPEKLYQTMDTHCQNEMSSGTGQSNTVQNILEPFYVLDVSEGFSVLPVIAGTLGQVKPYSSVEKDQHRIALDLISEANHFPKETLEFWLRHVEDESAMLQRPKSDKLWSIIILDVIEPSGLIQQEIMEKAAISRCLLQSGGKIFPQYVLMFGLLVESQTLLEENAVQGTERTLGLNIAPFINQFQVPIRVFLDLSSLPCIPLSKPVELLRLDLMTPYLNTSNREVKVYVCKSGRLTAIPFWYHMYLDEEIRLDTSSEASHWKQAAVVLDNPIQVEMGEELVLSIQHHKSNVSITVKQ

Misshapen-like kinase 1 = Misshapen-like kinase 1 (Homo sapiens, UniProt Q8N4C8); conditions: at 10 µM
Chain of Misshapen-like kinase 1 (Q8N4C8 whole entry, looked up): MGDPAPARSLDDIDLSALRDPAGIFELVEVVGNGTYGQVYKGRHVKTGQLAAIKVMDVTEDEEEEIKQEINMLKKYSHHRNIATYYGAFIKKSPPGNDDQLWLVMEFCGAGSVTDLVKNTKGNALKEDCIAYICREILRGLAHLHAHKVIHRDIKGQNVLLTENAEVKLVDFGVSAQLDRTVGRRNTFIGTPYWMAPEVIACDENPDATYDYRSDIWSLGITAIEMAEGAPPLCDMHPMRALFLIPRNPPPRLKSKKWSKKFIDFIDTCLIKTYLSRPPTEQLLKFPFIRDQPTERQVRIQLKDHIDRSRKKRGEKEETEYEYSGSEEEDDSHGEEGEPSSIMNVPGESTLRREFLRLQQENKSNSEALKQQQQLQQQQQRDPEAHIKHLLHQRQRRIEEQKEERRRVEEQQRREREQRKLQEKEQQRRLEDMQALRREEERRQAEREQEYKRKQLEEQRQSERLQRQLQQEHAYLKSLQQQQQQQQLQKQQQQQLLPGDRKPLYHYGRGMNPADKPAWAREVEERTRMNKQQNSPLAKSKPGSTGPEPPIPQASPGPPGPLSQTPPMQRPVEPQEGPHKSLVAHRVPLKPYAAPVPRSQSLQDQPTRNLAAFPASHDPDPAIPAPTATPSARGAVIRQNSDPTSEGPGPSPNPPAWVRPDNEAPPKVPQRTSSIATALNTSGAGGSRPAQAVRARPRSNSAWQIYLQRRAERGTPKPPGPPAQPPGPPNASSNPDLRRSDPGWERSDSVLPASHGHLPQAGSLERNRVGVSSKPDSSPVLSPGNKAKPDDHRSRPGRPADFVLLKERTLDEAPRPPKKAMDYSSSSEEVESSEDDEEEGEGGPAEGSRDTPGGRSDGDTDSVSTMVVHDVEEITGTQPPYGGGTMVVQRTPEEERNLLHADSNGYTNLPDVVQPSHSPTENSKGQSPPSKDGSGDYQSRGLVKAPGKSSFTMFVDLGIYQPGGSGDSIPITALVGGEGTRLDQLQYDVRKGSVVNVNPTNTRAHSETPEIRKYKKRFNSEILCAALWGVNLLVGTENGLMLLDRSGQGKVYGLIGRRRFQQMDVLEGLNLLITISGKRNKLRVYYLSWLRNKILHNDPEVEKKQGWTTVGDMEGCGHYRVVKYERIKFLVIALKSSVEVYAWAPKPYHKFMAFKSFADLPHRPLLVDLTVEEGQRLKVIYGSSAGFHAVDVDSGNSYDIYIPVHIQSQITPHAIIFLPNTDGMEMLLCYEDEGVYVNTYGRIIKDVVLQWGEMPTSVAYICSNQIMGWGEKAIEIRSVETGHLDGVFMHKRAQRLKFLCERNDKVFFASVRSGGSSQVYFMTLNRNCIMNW

[5] = molecular target: T3, Inhibitor of nuclear factor kappa-B kinase subunit beta (Homo sapiens) (UniProt O14920); assay: Selectivity interaction (ActivX KiNativ screen (ex vivo kinase selectivity in human PBMCs)) EUB0001619a IKBKB; format: cell-based; conditions: PBMC, at 1 µM
T3 sequence (whole entry): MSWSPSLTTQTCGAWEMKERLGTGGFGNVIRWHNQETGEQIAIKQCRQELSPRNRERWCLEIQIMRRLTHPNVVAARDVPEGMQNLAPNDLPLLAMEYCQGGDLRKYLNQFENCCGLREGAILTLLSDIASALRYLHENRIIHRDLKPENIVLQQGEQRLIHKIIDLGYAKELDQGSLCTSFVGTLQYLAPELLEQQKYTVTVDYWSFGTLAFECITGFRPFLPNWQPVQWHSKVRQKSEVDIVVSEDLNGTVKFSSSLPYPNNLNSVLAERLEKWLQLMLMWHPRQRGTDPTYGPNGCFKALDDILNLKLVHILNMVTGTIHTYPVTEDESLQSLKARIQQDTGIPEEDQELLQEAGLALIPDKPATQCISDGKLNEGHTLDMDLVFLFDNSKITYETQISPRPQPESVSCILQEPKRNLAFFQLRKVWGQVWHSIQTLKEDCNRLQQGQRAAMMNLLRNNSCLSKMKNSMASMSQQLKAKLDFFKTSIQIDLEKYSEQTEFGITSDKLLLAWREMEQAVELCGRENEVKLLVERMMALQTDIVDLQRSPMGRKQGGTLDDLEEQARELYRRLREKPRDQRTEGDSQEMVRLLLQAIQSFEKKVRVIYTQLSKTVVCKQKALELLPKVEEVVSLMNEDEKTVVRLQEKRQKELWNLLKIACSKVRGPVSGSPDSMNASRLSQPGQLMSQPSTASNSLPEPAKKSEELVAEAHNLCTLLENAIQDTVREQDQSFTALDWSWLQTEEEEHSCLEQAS

[6] = molecular target: Serine/threonine-protein kinase 16 (Homo sapiens, UniProt O75716); assay: Selectivity interaction (KinomeScan (DiscoverX)) EUB0001868a STK16; conditions: at 1 µM
Chain of Serine/threonine-protein kinase 16 (O75716 whole entry): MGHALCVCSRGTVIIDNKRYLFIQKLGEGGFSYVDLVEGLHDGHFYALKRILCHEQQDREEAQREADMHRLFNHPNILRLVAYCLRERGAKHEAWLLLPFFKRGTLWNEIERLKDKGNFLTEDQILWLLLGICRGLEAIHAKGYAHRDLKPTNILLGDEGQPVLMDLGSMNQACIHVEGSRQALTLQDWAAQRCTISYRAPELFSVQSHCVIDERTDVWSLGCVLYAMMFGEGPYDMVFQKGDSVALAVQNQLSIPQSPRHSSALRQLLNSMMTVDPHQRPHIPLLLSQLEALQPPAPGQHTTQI

Chain of PAS domain-containing serine/threonine-protein kinase (Homo sapiens) (Q96RG2 whole entry, the tested form may be a part): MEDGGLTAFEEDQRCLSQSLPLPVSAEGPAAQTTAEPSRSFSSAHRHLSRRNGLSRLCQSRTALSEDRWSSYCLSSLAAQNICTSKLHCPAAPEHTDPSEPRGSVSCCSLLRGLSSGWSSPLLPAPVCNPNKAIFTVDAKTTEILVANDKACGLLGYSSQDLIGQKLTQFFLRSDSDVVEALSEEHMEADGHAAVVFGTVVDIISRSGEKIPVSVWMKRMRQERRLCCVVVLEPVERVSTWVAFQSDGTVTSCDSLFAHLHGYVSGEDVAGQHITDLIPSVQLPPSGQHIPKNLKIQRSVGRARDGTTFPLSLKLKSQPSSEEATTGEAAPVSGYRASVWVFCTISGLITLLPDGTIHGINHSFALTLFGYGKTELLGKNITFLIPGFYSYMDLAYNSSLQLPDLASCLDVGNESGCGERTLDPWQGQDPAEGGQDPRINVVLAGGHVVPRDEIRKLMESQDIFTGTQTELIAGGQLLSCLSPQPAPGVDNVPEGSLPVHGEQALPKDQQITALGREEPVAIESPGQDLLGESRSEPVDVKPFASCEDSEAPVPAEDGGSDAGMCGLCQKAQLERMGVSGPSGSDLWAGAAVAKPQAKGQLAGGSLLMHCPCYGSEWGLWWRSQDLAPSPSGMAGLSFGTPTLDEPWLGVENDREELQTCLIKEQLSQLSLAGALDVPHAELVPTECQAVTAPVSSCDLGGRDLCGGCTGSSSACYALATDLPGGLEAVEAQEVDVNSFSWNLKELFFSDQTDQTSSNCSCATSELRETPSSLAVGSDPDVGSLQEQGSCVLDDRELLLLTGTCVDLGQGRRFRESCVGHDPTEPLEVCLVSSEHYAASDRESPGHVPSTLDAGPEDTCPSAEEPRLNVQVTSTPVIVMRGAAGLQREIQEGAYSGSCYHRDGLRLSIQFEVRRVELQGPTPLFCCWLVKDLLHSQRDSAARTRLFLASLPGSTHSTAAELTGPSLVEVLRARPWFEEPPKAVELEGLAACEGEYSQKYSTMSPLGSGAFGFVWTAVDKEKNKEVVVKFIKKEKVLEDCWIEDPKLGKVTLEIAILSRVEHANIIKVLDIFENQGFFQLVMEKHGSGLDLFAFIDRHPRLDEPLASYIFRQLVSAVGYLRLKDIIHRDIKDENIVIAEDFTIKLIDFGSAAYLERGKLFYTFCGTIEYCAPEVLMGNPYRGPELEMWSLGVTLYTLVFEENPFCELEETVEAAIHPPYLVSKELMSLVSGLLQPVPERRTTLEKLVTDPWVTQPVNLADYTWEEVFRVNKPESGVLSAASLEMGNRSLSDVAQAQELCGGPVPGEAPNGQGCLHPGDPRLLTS
Chain of Serine/threonine-protein kinase 35 (Homo sapiens) (Q8TDR2 whole entry): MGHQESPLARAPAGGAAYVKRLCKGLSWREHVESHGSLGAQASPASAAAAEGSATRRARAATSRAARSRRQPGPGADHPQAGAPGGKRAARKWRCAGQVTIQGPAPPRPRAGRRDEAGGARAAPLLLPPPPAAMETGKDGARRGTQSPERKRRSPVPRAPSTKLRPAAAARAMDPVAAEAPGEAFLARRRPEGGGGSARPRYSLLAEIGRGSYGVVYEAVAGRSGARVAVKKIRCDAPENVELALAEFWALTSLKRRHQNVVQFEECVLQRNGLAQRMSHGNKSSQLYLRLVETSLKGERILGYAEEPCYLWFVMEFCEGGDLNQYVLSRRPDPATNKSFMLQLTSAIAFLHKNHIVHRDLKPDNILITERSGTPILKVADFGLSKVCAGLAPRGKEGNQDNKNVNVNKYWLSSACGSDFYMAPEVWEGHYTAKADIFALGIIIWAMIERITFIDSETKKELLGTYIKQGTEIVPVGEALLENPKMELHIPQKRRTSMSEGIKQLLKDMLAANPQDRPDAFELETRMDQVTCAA

SMILES: CCc1cc(Nc2nccc(-c3c(-c4ccc(OC)c(C(=O)Nc5c(F)cccc5F)c4)nc4ccccn34)n2)c(OC)cc1N1CCC(N2CCN(S(C)(=O)=O)CC2)CC1
- % of inhibition [1]: 65%

SMILES: Nc1cnc(N2CCc3cc(S(=O)(=O)Nc4c(F)cc(Cl)cc4F)cc(N4CCCC4=O)c32)nc1 [TP-020n]
- % of control [2]: 100%

SMILES: C=CC(=O)Nc1ccc(C(=O)Nc2[nH]nc3c2CN(C(=O)N[C@H](CN(C)C)c2ccccc2)C3(C)C)cc1
- % of engagement [3]: 3.9%

SMILES: COCCN1CCC(c2cc(CN(C)C(=O)c3cccc(Oc4ccccc4)c3)ccn2)CC1
- % activity ([4]; at 1 µM): 90%
- % activity ([4]; at 10 µM): > 90%

SMILES: Cc1cc([C@@H](C)Nc2ccccc2C(=O)O)c2nc(N3CCOCC3)cc(=O)n2c1 [AZD-6482]
- % of control (Misshapen-like kinase 1): 100%

SMILES: N#Cc1cccc(-c2c[nH]c3ncnc(N4CCOCC4)c23)c1
- % of inhibition [5]: -16%

SMILES: Cc1cc(-c2ccnc(Nc3cnn(C)c3)n2)ccc1CNC(=O)N1CC(OC(C)C)C1
- % of control [6]: 23%
